Reference: PMC9023544, “Ketone-selenoesters as potential anticancer and multidrug resistance modulation agents in 2D and 3D ovarian and breast cancer in vitro models” (Scientific Reports, 2022)

Assays:
HOC/ADR spheroids [1] = test: Sensitization of resistant 3D spheroids to Adriamycin; assay type: cell-based, human; conditions: Adriamycin IC50 / Adriamycin + selenoester IC50; K3 3 µM, K4 5 µM, K7 5 µM; 72 h
Method: (§1) In the previous section, the cytotoxic activity of selenoesters was determined against several 3D models of sensitive and resistant cell lines. Subsequently, the selenoesters were tested for their potential to sensitize the drug-resistant HOC/ADR and MCF-7/PAX spheroids. Mature 72 h old spheroids were incubated with the non-toxic concentration of selenoesters with Adriamycin or paclitaxel (concentration range 0.6–80 µM) for HOC/ADR or MCF-7/PAX, respectively (Table 8). After another 72 h incubation, the sensitization rate (fold change) was evaluated. […] The highest sensitization rate of ovarian spheroids (HOC/ADR) was induced by 5 µM K4, followed by 5 µM K7, and 3 µM K3.
(§2) To determine the sensitization potential of compounds, HOC/ADR and MCF-7/PAX were seeded into the ultra-low attachment 96-well plates (Sigma-Aldrich) at a cell density 0.5 × 10^5 cells/mL. After 3 days of spheroid formation, spheroids were carefully washed once with PBS and fresh DMEM medium (99 µL) containing the appropriate concentration of compounds K3, K4, K7 was added. Using a binary serial compound dilution, the concentration range of both cytostatics was prepared in the new 96-well plates (0.06–8 mM). After 1 µL transfer of cytostatics into the corresponding cell line, the final concentration range were 0.6–80 µM. The required volume of DMSO (1% V/V) was added to the positive control. After an incubation of 72 h, 100 µL of CellTiter-Glo 3D Reagent (Promega) was added to each well. Plates with spheroids were incubated for 25 min at room temperature. Afterwards, the luminescent signal was recorded.

[2] = target: T1, human recombinant P-gp membrane fraction (Homo sapiens, UniProt P08183); test: P-gp-Glo assay, verapamil-stimulated P-gp ATPase activity; assay type: biochemical; conditions: for IC50: read-out: IC50, verapamil-stimulated P-glycoprotein ATPase activity; for mechanism of P-gp inhibition: with and without verapamil
T1 construct: purchased Promega
T1 sequence (P08183 whole entry): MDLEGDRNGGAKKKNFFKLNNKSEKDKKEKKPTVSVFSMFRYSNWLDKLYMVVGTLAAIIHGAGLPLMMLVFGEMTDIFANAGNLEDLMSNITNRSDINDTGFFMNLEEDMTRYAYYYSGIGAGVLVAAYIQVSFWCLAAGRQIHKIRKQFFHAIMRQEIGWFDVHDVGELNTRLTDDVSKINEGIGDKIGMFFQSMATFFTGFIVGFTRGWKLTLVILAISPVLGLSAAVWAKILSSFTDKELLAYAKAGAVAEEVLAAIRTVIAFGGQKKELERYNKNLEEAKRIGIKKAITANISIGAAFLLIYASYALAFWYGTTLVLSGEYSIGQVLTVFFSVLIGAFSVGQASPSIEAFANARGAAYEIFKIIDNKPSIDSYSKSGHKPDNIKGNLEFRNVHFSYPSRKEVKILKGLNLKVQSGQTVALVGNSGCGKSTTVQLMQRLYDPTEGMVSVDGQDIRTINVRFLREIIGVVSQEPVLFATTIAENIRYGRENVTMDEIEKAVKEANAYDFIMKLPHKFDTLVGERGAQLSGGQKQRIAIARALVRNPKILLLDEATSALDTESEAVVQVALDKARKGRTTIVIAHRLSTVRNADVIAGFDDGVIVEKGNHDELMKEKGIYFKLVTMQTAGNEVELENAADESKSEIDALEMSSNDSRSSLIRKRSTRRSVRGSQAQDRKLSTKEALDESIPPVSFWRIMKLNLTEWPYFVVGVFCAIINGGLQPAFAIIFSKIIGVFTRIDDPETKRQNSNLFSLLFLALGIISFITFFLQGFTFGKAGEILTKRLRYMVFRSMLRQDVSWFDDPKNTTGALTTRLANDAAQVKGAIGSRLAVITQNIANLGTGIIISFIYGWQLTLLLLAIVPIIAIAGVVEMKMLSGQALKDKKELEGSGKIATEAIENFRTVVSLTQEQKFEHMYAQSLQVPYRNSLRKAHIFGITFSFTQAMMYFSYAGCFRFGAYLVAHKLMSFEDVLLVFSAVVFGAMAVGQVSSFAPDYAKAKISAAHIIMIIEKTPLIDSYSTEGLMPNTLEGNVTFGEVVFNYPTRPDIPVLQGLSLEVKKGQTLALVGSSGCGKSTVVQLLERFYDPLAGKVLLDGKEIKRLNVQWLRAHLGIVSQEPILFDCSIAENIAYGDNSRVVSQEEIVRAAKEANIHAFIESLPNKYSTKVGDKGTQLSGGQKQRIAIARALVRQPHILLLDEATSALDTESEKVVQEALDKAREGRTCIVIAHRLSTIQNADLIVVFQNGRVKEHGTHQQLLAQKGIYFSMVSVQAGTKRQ
Method: P-gp Glo™ Assay System represents a bioluminescent assay for the detection of P-gp ATPase activity. […] The activity of P-gp is inversely proportional to the luciferase-generated luminescent signal of unmetabolized ATP. For the detection of P-gp inhibitory potential, the compounds (concentration range 12.5–100 µM) were tested for their capacity to inhibit verapamil-stimulated P-gp ATPase activity in a competitive mode.
Using ATP standard curve and linear regression, the average amount of ATP consumed in presence of each compound was calculated. Afterwards, the specific P-gp activity (consumed ATP) was plotted versus the concentrations of the test compound and IC50 values were determined (Table 6). By using one-way ANOVA analysis, the statistical differences between compounds were identified; the compounds with the most statistically significant inhibition capacity was K3, followed by K4 and K7.
The modulation of P-glycoprotein ATPase activity was performed according to the manufacturer’s guidelines[54] and previously published work[55]. […] The reduction of verapamil-stimulated ATPase activity by selenoesters can indicate them as P-gp ATPase inhibitors. The reaction was initiated with 10 µL of MgATP (5 mM) addition to the final 50 µL volume. After 1 h incubation at 37 °C, the ATPase reaction was stopped with 50 µL of ATP detection reagent and subsequently the plate was incubated for 20 min at room temperature. Thanks to the luciferase reaction, it was possible to detect the remaining non-metabolized ATP as the luminescent signal. By using ATP standards and linear regression, the relative luminescent values (RLU) were converted to ATP concentration per reaction; and the amount of consumed ATP by the compounds was calculated.

MCF-7/PAX spheroids [3] = test: Sensitization of resistant 3D spheroids to paclitaxel; assay type: cell-based, human; conditions: paclitaxel IC50 / paclitaxel + selenoester IC50; K3 3 µM, K4 3 µM, K7 5 µM; 72 h
Method: as §1, §2

MCF-7/PAX spheroids [4] = test: Cytotoxic activity against 3D models, CellTiter-Glo 3D; assay type: cell-based; conditions: Homo sapiens, MCF7; 72 h old spheroids, 72 h incubation, n=4
Method: (§3) The ability of selenoesters to affect the formation of spheroids was described in the previous section. Subsequently, we have tested the cytotoxic potential of selenoesters in preformed 72 h old spheroids. Both sensitive and resistant mature breast and ovarian cells spheroids were incubated in the presence of selenoesters in a concentration range 1.6–100 µM. […] A safe concentration of selenoesters has been established based on the results of sensitization of drug-resistant 3D models.
(§4) Human ovarian and breast cancer cells (HOC, MCF-7, parental and resistant) were seeded in ultra-low attachment 96-well plates (Sigma-Aldrich) at a cell density of 0.5 × 10^5 cells/mL. After 3 days of spheroid formation, plates were carefully washed once with PBS and fresh DMEM medium (99 µL) was added. Using a binary compound dilution, the concentration range of the K3, K4, K7 compounds was prepared in new 96-well plates (0.16–10 mM). After 1 µL compound transfer, the final concentration range of compounds was 1.6–100 µM. The required volume of DMSO (1% V/V) was added to the positive control. After 72 h of incubation, 100 µL of CellTiter-Glo 3D Re-agent (Promega) was added to each well. Spheroid plates were incubated for 25 min at room temperature. Subsequently, the luminescent signal was recorded by detector (SpectraMax i3x Multi-Mode Microplate reader with MiniMax Imaging Cytometer, Molecular Devices).

HOC spheroids = test: as above; assay type: cell-based; conditions: Homo sapiens; 72 h old spheroids, 72 h incubation, n=4
Method: as §3, §4

MCF-7 spheroids = test: as above; assay type: cell-based; conditions: Homo sapiens, MCF7; 72 h old spheroids, 72 h incubation, n=4
Method: as §3, §4

HOC/ADR spheroids [5] = test: as above; assay type: cell-based; conditions: Homo sapiens; 72 h old spheroids, 72 h incubation, n=4
Method: as §3, §4

| SMILES | HOC/ADR Fold change (3D) (HOC/ADR spheroids [1]) | inhibition of verapamil-stimulated P-gp ATPase activity (luminescent signal) ([2]; K3 50 µM versus Na3VO4 100 µM) | IC50 [2] [µM] | mechanism of P-gp inhibition [2] | MCF-7/PAX Fold change (3D) (MCF-7/PAX spheroids [3]) | IC50 (MCF-7/PAX spheroids [4]) [µM] | IC50 (HOC spheroids) [µM] | IC50 (MCF-7 spheroids) [µM] | IC50 (HOC/ADR spheroids [5]) [µM] |
| --- | --- | --- | --- | --- | --- | --- | --- | --- | --- |
| CC(=O)C[Se]C(=O)c1ccc(Br)cc1 [K3] | (1.2 ± 0.2)× | more effectively inhibited than sodium orthovanadate | 11.7 ± 1 | competitively inhibits efflux of another substrate | (0.9 ± 0.0)× | 4 ± 0.1 | 1.7 ± 0.1 | 2.5 ± 0.2 | 3.9 ± 0.2 |
| CC(=O)C[Se]C(=O)c1ccccc1C(F)(F)F [K4] | (2.3 ± 0.1)× |  | 23 ± 0.2 |  | (1.0 ± 0.1)× | 4.8 ± 0.3 | 3.1 ± 0.1 | 2.1 | 10.5 ± 0.5 |
| CC(=O)C[Se]C(=O)c1ccc(C(C)(C)C)cc1 [K7] | (1.6 ± 0.1)× |  | 25.7 ± 0.6 | non-competitive P-gp inhibitor | (1.1 ± 0.1)× | 7.5 ± 0.2 | 2.8 ± 0.1 | 2.2 ± 0.3 | 10.1 ± 0.5 |
